In PubChem BioAssay AID2060892 (Molecular Pharmacology Branch, DTP, NCI, 2025):

Tested on: HOP-62 complex spheroids with HUVEC/MSC, viability
Assay: Anticancer human tumor HOP-62 cell line growth inhibition [RAS];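 also: spheroids exposed to agents for seven days before readout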;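 as to viability, T/C: 100% = DMSO vehicle control viability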
Settings: for IC50: curve of first compound; for viability, T/C: stronger effect = lower value
Procedure, shortened: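 Tumour cells grown as complex spheroids with HUVEC endothelial cells and mesenchymal stem cells, treated with RAS pathway inhibitor combinations. Each agent spans half-log steps from near clinical Cmax, or 10 microM where Cmax is unknown.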

[1] = second compound 0.000949 µM, first compound 0.0316 µM
[2] = second compound 0.000949 µM, first compound 0.1 µM
[3] = second compound 0.000949 µM, first compound 0.316 µM
[4] = second compound 0.000949 µM, first compound 1 µM
[5] = second compound 0.003 µM, first compound 0.0316 µM
[6] = second compound 0.003 µM, first compound 0.1 µM
[7] = second compound 0.003 µM, first compound 0.316 µM
[8] = second compound 0.003 µM, first compound 1 µM
[9] = second compound 0.00949 µM, first compound 0.0316 µM
[10] = second compound 0.00949 µM, first compound 0.1 µM
[11] = second compound 0.00949 µM, first compound 0.316 µM
[12] = second compound 0.00949 µM, first compound 1 µM
[13] = second compound 0.03 µM, first compound 0.0316 µM
[14] = second compound 0.03 µM, first compound 0.1 µM
[15] = second compound 0.03 µM, first compound 0.316 µM
[16] = second compound 0.03 µM, first compound 1 µM
[17] = second compound 0.0949 µM, first compound 0.0316 µM
[18] = second compound 0.0949 µM, first compound 0.1 µM
[19] = second compound 0.0949 µM, first compound 0.316 µM
[20] = second compound 0.0949 µM, first compound 1 µM
[21] = second compound 0.3 µM, first compound 0.0316 µM
[22] = second compound 0.3 µM, first compound 0.1 µM
[23] = second compound 0.3 µM, first compound 0.316 µM
[24] = second compound 0.3 µM, first compound 1 µM

For `CC(=O)OC12COC1CC(O)C1(C)C(=O)C(O)C3=C(C)C(OC(=O)C(O)C(NC(=O)OC(C)(C)C)c4ccccc4)CC(O)(C(OC(=O)c4ccccc4)C21)C3(C)C` (stereo unspecified) + CCn1c(-c2cccnc2C(C)OC)c2c3cc(ccc31)N1CCOC(CC(NC(=O)C(C(C)C)N(C)C(=O)C3(F)CCN(C(=O)C#CC(C)(C)N(C)C)CC3)C(=O)N3CCCC(N3)C(=O)OCC(C)(C)C2)C1, the IC50 (second compound 0.000949 µM) was under 31.6 nM, the IC50 (second compound 0.003 µM) was under 31.6 nM and the IC50 (second compound 0.00949 µM) was under 31.6 nM. For the same compound, the IC50 (second compound 0.03 µM) was under 31.6 nM, the IC50 (second compound 0.0949 µM) was under 31.6 nM and the IC50 (second compound 0.3 µM) was under 31.6 nM. It also gave a viability, T/C [1] of 31%, a viability, T/C [2] of 29.6% and a viability, T/C [3] of 20.6%. For the same compound, the viability, T/C [4] was 34.7%, the viability, T/C (second compound 0.000949 µM, first compound 3.16 µM) was 48.4% and the viability, T/C (second compound 0.000949 µM, first compound 10 µM) was 45.6%. The viability, T/C [5] was 32.6%, the viability, T/C [6] was 32.1% and the viability, T/C [7] was 37%. For the same compound, the viability, T/C [8] was 33.3%, the viability, T/C (second compound 0.003 µM, first compound 3.16 µM) was 52.1% and the viability, T/C (second compound 0.003 µM, first compound 10 µM) was 39.7%. For the same compound, the viability, T/C [9] was 30.8%, the viability, T/C [10] was 31.6% and the viability, T/C [11] was 29.4%. For the same compound, the viability, T/C [12] was 36.3%, the viability, T/C (second compound 0.00949 µM, first compound 3.16 µM) was 39.3% and the viability, T/C (second compound 0.00949 µM, first compound 10 µM) was 43.2%. The viability, T/C [13] was 31.4%, the viability, T/C [14] was 32.9% and the viability, T/C [15] was 31%. It also gave a viability, T/C [16] of 35.4%, a viability, T/C (second compound 0.03 µM, first compound 3.16 µM) of 33.1% and a viability, T/C (second compound 0.03 µM, first compound 10 µM) of 46.4%. For the same compound, the viability, T/C [17] was 34.2%, the viability, T/C [18] was 34.1% and the viability, T/C [19] was 36.6%. The viability, T/C [20] was 37.3%, the viability, T/C (second compound 0.0949 µM, first compound 3.16 µM) was 34.9% and the viability, T/C (second compound 0.0949 µM, first compound 10 µM) was 42.1%. The viability, T/C [21] was 28.1%, the viability, T/C [22] was 40.2% and the viability, T/C [23] was 31.8%. It also gave a viability, T/C [24] of 37.9%, a viability, T/C (second compound 0.3 µM, first compound 3.16 µM) of 33.5% and a viability, T/C (second compound 0.3 µM, first compound 10 µM) of 36.9%.
In the case of `CCc1c2c(nc3ccc(O)cc13)-c1cc3c(c(=O)n1C2)COC(=O)[C@]3(O)CC` + CCn1c(-c2cccnc2C(C)OC)c2c3cc(ccc31)N1CCOC(CC(NC(=O)C(C(C)C)N(C)C(=O)C3(F)CCN(C(=O)C#CC(C)(C)N(C)C)CC3)C(=O)N3CCCC(N3)C(=O)OCC(C)(C)C2)C1, the IC50 (second compound 0.000949 µM) is reported as under 0.949 nM, the IC50 (second compound 0.003 µM) is reported as under 0.949 nM and the IC50 (second compound 0.00949 µM) is reported as under 0.949 nM. It also gave an IC50 (second compound 0.03 µM) of under 0.949 nM, an IC50 (second compound 0.0949 µM) of under 0.949 nM and an IC50 (second compound 0.3 µM) of under 0.949 nM. It also gave a viability, T/C (second compound 0.000949 µM, first compound 0.000949 µM) of 45%, a viability, T/C (second compound 0.000949 µM, first compound 0.003 µM) of 15.7% and a viability, T/C (second compound 0.000949 µM, first compound 0.00949 µM) of 6.01%. It also gave a viability, T/C (second compound 0.000949 µM, first compound 0.03 µM) of 6.3%, a viability, T/C (second compound 0.000949 µM, first compound 0.0949 µM) of 4.47% and a viability, T/C (second compound 0.000949 µM, first compound 0.3 µM) of 15.6%. For the same compound, the viability, T/C (second compound 0.003 µM, first compound 0.000949 µM) was 45.6%, the viability, T/C (second compound 0.003 µM, first compound 0.003 µM) was 14.3% and the viability, T/C (second compound 0.003 µM, first compound 0.00949 µM) was 7.48%. The viability, T/C (second compound 0.003 µM, first compound 0.03 µM) was 7.59%, the viability, T/C (second compound 0.003 µM, first compound 0.0949 µM) was 5.27% and the viability, T/C (second compound 0.003 µM, first compound 0.3 µM) was 2.57%. It also gave a viability, T/C (second compound 0.00949 µM, first compound 0.000949 µM) of 41.5%, a viability, T/C (second compound 0.00949 µM, first compound 0.003 µM) of 13.7% and a viability, T/C (second compound 0.00949 µM, first compound 0.00949 µM) of 8.71%. For the same compound, the viability, T/C (second compound 0.00949 µM, first compound 0.03 µM) was 5.6%, the viability, T/C (second compound 0.00949 µM, first compound 0.0949 µM) was 3.2% and the viability, T/C (second compound 0.00949 µM, first compound 0.3 µM) was 2.48%. For the same compound, the viability, T/C (second compound 0.03 µM, first compound 0.000949 µM) was 41%, the viability, T/C (second compound 0.03 µM, first compound 0.003 µM) was 14.1% and the viability, T/C (second compound 0.03 µM, first compound 0.00949 µM) was 7.78%. The viability, T/C (second compound 0.03 µM, first compound 0.03 µM) was 6.23%, the viability, T/C (second compound 0.03 µM, first compound 0.0949 µM) was 2.8% and the viability, T/C (second compound 0.03 µM, first compound 0.3 µM) was 3.13%. For the same compound, the viability, T/C (second compound 0.0949 µM, first compound 0.000949 µM) was 36.4%, the viability, T/C (second compound 0.0949 µM, first compound 0.003 µM) was 14.8% and the viability, T/C (second compound 0.0949 µM, first compound 0.00949 µM) was 9.82%. It also gave a viability, T/C (second compound 0.0949 µM, first compound 0.03 µM) of 6.01%, a viability, T/C (second compound 0.0949 µM, first compound 0.0949 µM) of 2.96% and a viability, T/C (second compound 0.0949 µM, first compound 0.3 µM) of 2.45%. It also gave a viability, T/C (second compound 0.3 µM, first compound 0.000949 µM) of 28.9%, a viability, T/C (second compound 0.3 µM, first compound 0.003 µM) of 13.9% and a viability, T/C (second compound 0.3 µM, first compound 0.00949 µM) of 11%. The viability, T/C (second compound 0.3 µM, first compound 0.03 µM) was 4.25%, the viability, T/C (second compound 0.3 µM, first compound 0.0949 µM) was 3.87% and the viability, T/C (second compound 0.3 µM, first compound 0.3 µM) was 2.14%.
`Nc1ccn(C2OC(CO)C(O)C2(F)F)c(=O)n1` (stereo unspecified) + CCn1c(-c2cccnc2C(C)OC)c2c3cc(ccc31)N1CCOC(CC(NC(=O)C(C(C)C)N(C)C(=O)C3(F)CCN(C(=O)C#CC(C)(C)N(C)C)CC3)C(=O)N3CCCC(N3)C(=O)OCC(C)(C)C2)C1 was tested, and the IC50 (second compound 0.000949 µM) was 14 nM, the IC50 (second compound 0.003 µM) was 9.19 nM and the IC50 (second compound 0.00949 µM) was 8.18 nM. It also gave an IC50 (second compound 0.03 µM) of 10.6 nM, an IC50 (second compound 0.0949 µM) of 9.58 nM and an IC50 (second compound 0.3 µM) of 8.77 nM. For the same compound, the viability, T/C (second compound 0.000949 µM, first compound 0.00316 µM) was 111%, the viability, T/C (second compound 0.000949 µM, first compound 0.01 µM) was 66.9% and the viability, T/C [1] was 9.65%. For the same compound, the viability, T/C [2] was 7.4%, the viability, T/C [3] was 7.76% and the viability, T/C [4] was 5.24%. For the same compound, the viability, T/C (second compound 0.003 µM, first compound 0.00316 µM) was 104%, the viability, T/C (second compound 0.003 µM, first compound 0.01 µM) was 45.6% and the viability, T/C [5] was 18.4%. The viability, T/C [6] was 7.14%, the viability, T/C [7] was 8.39% and the viability, T/C [8] was 5.94%. It also gave a viability, T/C (second compound 0.00949 µM, first compound 0.00316 µM) of 87.8%, a viability, T/C (second compound 0.00949 µM, first compound 0.01 µM) of 41% and a viability, T/C [9] of 22.8%. For the same compound, the viability, T/C [10] was 10.3%, the viability, T/C [11] was 10.9% and the viability, T/C [12] was 5.88%. For the same compound, the viability, T/C (second compound 0.03 µM, first compound 0.00316 µM) was 90%, the viability, T/C (second compound 0.03 µM, first compound 0.01 µM) was 51.2% and the viability, T/C [13] was 22.7%. For the same compound, the viability, T/C [14] was 8.44%, the viability, T/C [15] was 4.99% and the viability, T/C [16] was 7.65%. For the same compound, the viability, T/C (second compound 0.0949 µM, first compound 0.00316 µM) was 83.9%, the viability, T/C (second compound 0.0949 µM, first compound 0.01 µM) was 48.5% and the viability, T/C [17] was 21.7%. The viability, T/C [18] was 8.95%, the viability, T/C [19] was 5.53% and the viability, T/C [20] was 6.69%. The viability, T/C (second compound 0.3 µM, first compound 0.00316 µM) was 77.8%, the viability, T/C (second compound 0.3 µM, first compound 0.01 µM) was 45.9% and the viability, T/C [21] was 22.9%. It also gave a viability, T/C [22] of 8.24%, a viability, T/C [23] of 8.97% and a viability, T/C [24] of 8.38%.
